The text below walks through data of patent publication US8629276B2, “Inhibitors of human immunodeficiency virus replication” (priority 2012, dated 2014).

The EC50 is the midpoint of the concentration-response curve.

The test has as its system recombinant NL-Rluc virus. As to the kind of experiment: Inhibition of HIV replication (NL-RLuc virus, luciferase readout in MT-2 cells). The class given is cell-based. As to conditions: Human immunodeficiency virus 1, MT2, 120 h.
Take `Cc1ccc(-c2c3c(nc(C)c2C(OC(C)(C)C)C(=O)O)CCN(C(=O)NCc2ccccc2)C3)cc1` (stereo not shown) [Example 27, 2-(6-(Benzylcarbamoyl)-2-methyl-4-(p-tolyl)-5,6,7,8-tetrahydro-1,6-naphthyridin-3-yl)-2-(tert-butoxy)acetic acid]: the EC50 was determined as 0.499 µM. As for `Cc1nc2c(c(-c3cc(F)c4c(c3C)CCCO4)c1[C@H](OC(C)(C)C)C(=O)O)CN(CCCc1cccc(F)c1)CC2` (atropisomer, axis not shown) [Example 49, (S)-2-(tert-Butoxy)-2-((R)-4-(8-fluoro-5-methylchroman-6-yl)-6-(3-(3-fluorophenyl)propyl)-2-methyl-5,6,7,8-tetrahydro-1,6-naphthyridin-3-yl)acetic acid], the figure is 0.004 µM.

With `Cc1ccc(-c2c3c(nc(C)c2C(OC(C)(C)C)C(=O)O)CCNC3)cc1` (stereo not shown) [Example 20, 2-(tert-Butoxy)-2-(2-methyl-4-(p-tolyl)-5,6,7,8-tetrahydro-1,6-naphthyridin-3-yl)acetic acid], the EC50 worked out at 13.5 µM. With `Cc1ccc(-c2c3c(nc(C)c2C(OC(C)(C)C)C(=O)O)CCN(c2ccccc2)C3)cc1` (stereo not shown) [Example 31, 2-(tert-Butoxy)-2-(2-methyl-6-phenyl-4-(p-tolyl)-5,6,7,8-tetrahydro-1,6-naphthyridin-3-yl)acetic acid], the half-maximal effective concentration (EC50) was 0.466 µM. As for `Cc1onc(-c2ccccc2)c1C(=O)N1Cc2c(nc(C(C)C)c(C(OC(C)(C)C)C(=O)O)c2-c2ccc(F)cc2)C(C)(C)C1` (stereo not shown) [Example 14, 2-tert-Butoxy-2-(4-(4-fluorophenyl)-2-isopropyl-8,8-dimethyl-6-(5-methyl-3-phenylisoxazole-4-carbonyl)-5,6,7,8-tetrahydro-1,6-naphthyridin-3-yl)acetic acid], the EC50 amounted to 10.2 µM. The result for `Cc1ccc(CCCN2CCc3nc(C)c([C@H](OC(C)(C)C)C(=O)O)c(-c4cc(F)c5c(c4C)CCCO5)c3C2)cc1` [Example 54, (2S)-2-(tert-Butoxy)-2-(4-(8-fluoro-5-methylchroman-6-yl)-2-methyl-6-(3-(p-tolyl)propyl)-5,6,7,8-tetrahydro-1,6-naphthyridin-3-yl)acetic acid] reads 0.002 µM; that for `Cc1cc(CCCN2CCc3nc(C)c([C@H](OC(C)(C)C)C(=O)O)c(-c4cc(F)c5c(c4C)CCCO5)c3C2)ccc1F` (atropisomer, axis not shown) [Example 52, (2S)-2-(tert-Butoxy)-2-(6-(3-(4-fluoro-3-methylphenyl)propyl)-(R)-4-(8-fluoro-5-methylchroman-6-yl)-2-methyl-5,6,7,8-tetrahydro-1,6-naphthyridin-3-yl)acetic acid], 0.002 µM; that for `CC(C)c1nc2c(c(-c3ccc(F)cc3)c1C(OC(C)(C)C)C(=O)O)CN(C(=O)CCc1ccccc1)CC2(C)C` (stereo not shown) [Example 12, 2-tert-Butoxy-2-(4-(4-fluorophenyl)-2-isopropyl-8,8-dimethyl-6-(3-phenylpropanoyl)-5,6,7,8-tetrahydro-1,6-naphthyridin-3-yl)acetic acid], 7.13 µM. As for `Cc1ccc(-c2c3c(nc(C)c2C(OC(C)(C)C)C(=O)O)CCN(CCCc2ccccc2)C3)cc1` (stereo not shown) [Example 29, 2-(tert-Butoxy)-2-(2-methyl-6-(3-phenylpropyl)-4-(p-tolyl)-5,6,7,8-tetrahydro-1,6-naphthyridin-3-yl)acetic acid], the figure is 0.01 µM. The result for `CC(C)c1nc2c(c(-c3ccc(F)cc3)c1C(OC(C)(C)C)C(=O)O)CN(C(=O)c1ccccc1)CC2(C)C` (stereo not shown) [Example 3, 2-(6-Benzoyl-4-(4-fluorophenyl)-2-isopropyl-8,8-dimethyl-5,6,7,8-tetrahydro-1,6-naphthyridin-3-yl)-2-tert-butoxyacetic acid] reads 6.79 µM; that for `CC(C)c1nc2c(c(-c3ccc(F)cc3)c1C(OC(C)(C)C)C(=O)O)CN(C(=O)C(=O)c1c[nH]c3ccccc13)CC2(C)C` (stereo not shown) [Example 11, 2-(6-(2-(1H-Indol-3-yl)-2-oxoacetyl)-4-(4-fluorophenyl)-2-isopropyl-8,8-dimethyl-5,6,7,8-tetrahydro-1,6-naphthyridin-3-yl)-2-tert-butoxyacetic acid], 4.12 µM. Turning to `Cc1ccc(-c2c3c(nc(C)c2C(OC(C)(C)C)C(=O)O)CCN(S(C)(=O)=O)C3)cc1` (stereo not shown) [Example 22, 2-(tert-Butoxy)-2-(2-methyl-6-(methylsulfonyl)-4-(p-tolyl)-5,6,7,8-tetrahydro-1,6-naphthyridin-3-yl)acetic acid], the concentration giving a half-maximal response (EC50) is 2.65 µM. Regarding `Cc1ccc(-c2c3c(nc(C)c2[C@H](OC(C)(C)C)C(=O)O)CCN(C(=O)CCCc2ccccc2)C3)cc1` [Example 36, (S)-2-(tert-Butoxy)-2-(2-methyl-6-(4-phenylbutanoyl)-4-(p-tolyl)-5,6,7,8-tetrahydro-1,6-naphthyridin-3-yl)acetic acid], the EC50 was 0.052 µM.

As for `Cc1nc2c(c(-c3ccc(Cl)cc3)c1[C@H](OC(C)(C)C)C(=O)O)CN(C(=O)OCc1ccccc1)CC2` [Example 38, (S)-2-(6-((Benzyloxy)carbonyl)-4-(4-chlorophenyl)-2-methyl-5,6,7,8-tetrahydro-1,6-naphthyridin-3-yl)-2-(tert-butoxy)acetic acid], the EC50 was 0.543 µM. The result for `Cc1nc2c(c(-c3cc(F)c4c(c3C)CCCO4)c1[C@H](OC(C)(C)C)C(=O)O)CN(CC1CC1c1ccccc1)CC2` (stereo partly drawn) [Example 50, (2S)-2-(tert-Butoxy)-2-((R)-4-(8-fluoro-5-methylchroman-6-yl)-2-methyl-6-((2-phenylcyclopropyl)methyl)-5,6,7,8-tetrahydro-1,6-naphthyridin-3-yl)acetic acid] reads 0.005 µM; that for `CC(=O)N1Cc2c(nc(C(C)C)c(C(OC(C)(C)C)C(=O)O)c2-c2ccc(F)cc2)C(C)(C)C1` (stereo not shown) [Example 2, 2-(6-Acetyl-4-(4-fluorophenyl)-2-isopropyl-8,8-dimethyl-5,6,7,8-tetrahydro-1,6-naphthyridin-3-yl)-2-tert-butoxyacetic acid], 10 µM; that for `Cc1ccccc1CCCN1CCc2nc(C)c([C@H](OC(C)(C)C)C(=O)O)c(-c3cc(F)c4c(c3C)CCCO4)c2C1` (atropisomer, axis not shown) [Example 48, (2S)-2-(tert-Butoxy)-2-((R)-4-(8-fluoro-5-methylchroman-6-yl)-2-methyl-6-(3-(o-tolyl)propyl)-5,6,7,8-tetrahydro-1,6-naphthyridin-3-yl)acetic acid], 0.002 µM. The result for `Cc1nc2c(c(-c3cc(F)c4c(c3C)CCCO4)c1[C@H](OC(C)(C)C)C(=O)O)CN(CCCc1ccc(F)cc1)CC2` (atropisomer, axis not shown) [Example 45, (S)-2-(tert-Butoxy)-2-((R)-4-(8-fluoro-5-methylchroman-6-yl)-6-(3-(4-fluorophenyl)propyl)-2-methyl-5,6,7,8-tetrahydro-1,6-naphthyridin-3-yl)acetic acid] reads 0.004 µM. As for `CC(C)c1nc2c(c(-c3ccc(F)cc3)c1C(OC(C)(C)C)C(=O)O)CN(c1cccc(-c3ccccc3)c1)CC2(C)C` (stereo not shown) [Example 17, 2-(6-([1,1′-Biphenyl]-3-yl)-4-(4-fluorophenyl)-2-isopropyl-8,8-dimethyl-5,6,7,8-tetrahydro-1,6-naphthyridin-3-yl)-2-(tert-butoxy)acetic acid], the figure is 4.6 µM.
